In patent US11241436B2, “Autophagy inducers for treatment of CNS conditions” (Northwestern University, priority 2017, dated 2022):

Test system: LC3
Assay: Promega Autophagy Assay System (HiBiT-tagged LC3 reporter, autophagy flux)
Type: cell-based
Conditions: LC3 reporter signal; decrease = increased autophagy
Description: The Promega Augophagy Assay System uses LC3 to monitor the autophagy process. […] LgBiT is a […] recombinant protein derived from NanoLuc. When HiBiT associates with LgBiT, a strong luciferase activity is reconstituted. An increase in autophagy will accelerate the degradation of LC3 reporter which decreases the assay signal. In contrast, inhibition of autophagy causes the accumulation of LC3 which will increase the reporter levels and assay signal.

In order of rising AC50:
1. COC(Cn1cnc2c(c(-c3ccccc3)c(-c3ccccc3)n2Cc2ccccc2)c1=N)OC  0.231 µM
2. N=c1c2c(-c3ccccc3)c(-c3ccccc3)n(CC3CCCCC3)c2ncn1C[C@H]1CCCC[C@@H]1O  0.366 µM
3. N=c1c2c(-c3ccccc3)c(-c3ccccc3)n(CCc3ccccc3)c2ncn1[C@H]1CC[C@H](O)CC1  1.16 µM
4. COc1ccc(Cn2c(-c3ccccc3)c(-c3ccccc3)c3c(=N)n([C@H]4CC[C@H](O)CC4)cnc32)cc1  1.64 µM
5. N=c1c2c(-c3ccccc3)c(-c3ccccc3)n(Cc3ccccc3)c2ncn1CCC1CCC(O)CC1 (stereo not shown)  1.84 µM
6. N=c1c2c(-c3ccccc3)c(-c3ccccc3)n(Cc3ccccc3)c2ncn1C1CCOCC1  2.31 µM
7. COc1ccc(Cn2c(-c3ccccc3)c(-c3ccccc3)c3c(=N)n(CCO)cnc32)cc1  2.59 µM
8. COc1ccc(Cn2c(-c3ccccc3)c(-c3ccccc3)c3c(=N)n(C4CCOCC4)cnc32)cc1  2.59 µM
9. N=c1c2c(-c3ccccc3)c(-c3ccccc3)n(Cc3ccc(OC(F)(F)F)cc3)c2ncn1[C@H]1CC[C@H](O)CC1  2.59 µM
10. N=c1c2c(-c3ccccc3)c(-c3ccccc3)n(Cc3ccccc3)c2ncn1C1CCC(O)CC1 (stereo not shown)  2.91 µM
11. CO[C@H]1CC[C@H](n2cnc3c(c(-c4ccccc4)c(-c4ccccc4)n3Cc3ccccc3)c2=N)CC1  2.91 µM
12. COC1CCC(n2cnc3c(c(-c4ccccc4)c(-c4ccccc4)n3Cc3ccc(OC(F)(F)F)cc3)c2=N)CC1 (stereo not shown)  2.91 µM
13. N=c1c2c(-c3ccccc3)c(-c3ccccc3)n(Cc3ccccc3)c2ncn1[C@@H]1CCCC[C@H]1O  3.26 µM
14. N=c1c2c(-c3ccccc3)c(-c3ccccc3)n(CCc3ccccc3)c2ncn1CCC1CCC(O)CC1 (stereo not shown)  3.66 µM
15. CO[C@H]1CC[C@H](n2cnc3c(c(-c4ccccc4)c(-c4ccccc4)n3CCc3ccccc3)c2=N)CC1  3.66 µM
16. N=c1c2c(-c3ccccc3)c(-c3ccccc3)n(CCc3ccccc3)c2ncn1CCO  4.61 µM
17. N=c1c2c(-c3ccccc3)c(-c3ccccc3)n(CCc3ccccc3)c2ncn1CCCO  4.61 µM
18. CN(C)CCn1cnc2c(c(-c3ccccc3)c(-c3ccccc3)n2CCc2ccccc2)c1=N  5.17 µM
19. COc1ccc(Cn2c(-c3ccccc3)c(-c3ccccc3)c3c(=N)n(CCCCCO)cnc32)cc1  5.17 µM
20. COc1ccc(Cn2c(-c3ccccc3)c(-c3ccccc3)c3c(=N)n(CCCO)cnc32)cc1  5.17 µM
21. N=c1c2c(-c3ccccc3)c(-c3ccccc3)n(Cc3ccccc3)c2ncn1CCO  5.8 µM
22. N=c1c2c(-c3ccccc3)c(-c3ccccc3)n(CC3CC3)c2ncn1C1CCOCC1  7.31 µM
23. N=c1c2c(-c3ccccc3)c(-c3ccccc3)n(CCc3ccccc3)c2ncn1CC1CCOC1 (stereo not shown)  9.2 µM
24. N=c1c2c(-c3ccccc3)c(-c3ccccc3)n(Cc3ccc(OC(F)(F)F)cc3)c2ncn1C1CCOCC1  9.2 µM
25. N=c1c2c(-c3ccccc3)c(-c3ccccc3)n(Cc3ccc(OC(F)(F)F)cc3)c2ncn1CC1CCOCC1  9.2 µM
26. N=c1c2c(-c3ccccc3)c(-c3ccccc3)n(Cc3ccc(OC(F)(F)F)cc3)c2ncn1CCCO  9.2 µM
27. N=c1c2c(-c3ccccc3)c(-c3ccccc3)n(Cc3ccccc3)c2ncn1CCCCCO  10.3 µM
28. CN(C)CCn1cnc2c(c(-c3ccccc3)c(-c3ccccc3)n2Cc2ccccc2)c1=N  10.3 µM
29. N=c1c2c(-c3ccccc3)c(-c3ccccc3)n(CCc3ccccc3)c2ncn1CCCCO  10.3 µM
30. COc1ccc(Cn2c(-c3ccccc3)c(-c3ccccc3)c3c(=N)n(CCCCO)cnc32)cc1  10.3 µM
31. N=c1c2c(-c3ccccc3)c(-c3ccccc3)n(CCc3ccccc3)c2ncn1CC1CCOCC1  10.3 µM
32. N=c1c2c(-c3ccccc3)c(-c3ccccc3)n(Cc3ccccc3)c2ncn1CC1CCOCC1  10.3 µM
33. N=c1c2c(-c3ccccc3)c(-c3ccccc3)n(CC3CC3)c2ncn1CCCO  10.3 µM
34. N=c1c2c(-c3ccccc3)c(-c3ccccc3)n(CC3CCCCC3)c2ncn1C1CCOCC1  10.3 µM
35. COCCn1cnc2c(c(-c3ccccc3)cn2Cc2ccccc2)c1=N  11.6 µM
36. N=c1c2c(-c3ccccc3)c(-c3ccccc3)n(Cc3ccccc3)c2ncn1CCCCO  11.6 µM
37. CC[Si](CC)(CC)OCCCn1cnc2c(c(-c3ccccc3)cn2Cc2ccc(Br)cc2)c1=N  13 µM
38. COCCn1cnc2c(c(-c3ccccc3)c(-c3ccccc3)n2Cc2ccccc2)c1=N  13 µM
39. N=c1c2c(-c3ccccc3)c(-c3ccccc3)n(Cc3ccccc3)c2ncn1CCN  13 µM
40. N=c1c2c(-c3ccccc3)c(-c3ccccc3)n(CCc3ccccc3)c2ncn1CCCCCO  13 µM
41. CCOC(CCCn1cnc2c(c(-c3ccccc3)c(-c3ccccc3)n2CCc2ccccc2)c1=N)OCC  13 µM
42. COC(=O)c1cccc(Cn2cnc3c(c(-c4ccccc4)c(-c4ccccc4)n3CCc3ccccc3)c2=N)c1  13 µM
43. N=c1c2c(-c3ccccc3)c(-c3ccccc3)n(Cc3ccccc3)c2ncn1C[C@@H]1CCCC[C@H]1O  13 µM
44. COc1ccc(-c2c(-c3ccc(OC)cc3)n(Cc3ccccc3)c3ncn([C@H]4CC[C@H](OC)CC4)c(=N)c23)cc1  13 µM
45. N=c1c2c(-c3ccccc3)cn(Cc3ccccc3)c2ncn1[C@@H]1CCCC[C@H]1N  14.6 µM
46. N=c1c2c(-c3ccccc3)c(-c3ccccc3)n(Cc3ccccc3)c2ncn1CC1CCCO1 (stereo not shown)  14.6 µM
47. N=c1c2c(-c3ccccc3)c(-c3ccccc3)n(CC3CCCCC3)c2ncn1CC1CCOCC1  14.6 µM
48. N=c1c2c(-c3ccccc3)cn(Cc3ccc(Br)cc3)c2ncn1CCCN1CCN(c2ccccc2)CC1  16.4 µM
49. N=c1c2c(-c3ccccc3)cn(Cc3ccccc3)c2ncn1C1CCC(O)CC1 (stereo not shown)  16.4 µM
50. COc1ccc(CCn2cnc3c(c(-c4ccccc4)cn3Cc3ccccc3)c2=N)cc1OC  16.4 µM
51. N=c1c2c(-c3ccccc3)cn(Cc3ccccc3)c2ncn1Cc1ccco1  16.4 µM
52. N=c1c2c(-c3ccccc3)c(-c3ccccc3)n(Cc3ccccc3)c2ncn1Cc1ccc2c(c1)OCO2  16.4 µM
53. COc1ccc(Cn2c(-c3ccccc3)c(-c3ccccc3)c3c(=N)n(CC(OC)OC)cnc32)cc1  16.4 µM
54. N=c1c2c(-c3ccccc3)c(-c3ccccc3)n(CC3CCCCC3)c2ncn1[C@H]1CC[C@H](O)CC1  16.4 µM
55. N=c1c2c(-c3ccc4c(c3)OCO4)c(-c3ccc4c(c3)OCO4)n(Cc3ccccc3)c2ncn1C1CCOCC1  18.4 µM
56. N=c1c2c(-c3ccccc3)c(-c3ccccc3)n(CCc3ccccc3)c2ncn1C[C@@H]1CCCC[C@H]1O  18.4 µM
57. N=c1c2c3c(n(CCc4ccccc4)c2ncn1CCCO)CCCC3  18.4 µM
58. N=c1c2c(-c3ccccc3)c(-c3ccccc3)n(Cc3ccccc3)c2ncn1CCNc1ccncc1  20.6 µM
59. CCOC(CCCn1cnc2c(c(-c3ccccc3)c(-c3ccccc3)n2Cc2ccccc2)c1=N)OCC  20.6 µM
60. COCCn1cnc2c(c(-c3ccccc3)c(-c3ccccc3)n2CCc2ccccc2)c1=N  20.6 µM
61. N=c1c2c(-c3ccccc3)c(-c3ccccc3)n(CCc3ccccc3)c2ncn1[C@H](CO)Cc1ccccc1  20.6 µM
62. CCOC(CCCn1cnc2c(c(-c3ccccc3)c(-c3ccccc3)n2Cc2ccc(OC)cc2)c1=N)OCC  20.6 µM
63. COc1ccc(Cn2c(-c3ccccc3)c(-c3ccccc3)c3c(=N)n([C@H](C)[C@@H](O)c4ccccc4)cnc32)cc1  20.6 µM
64. COc1ccc(Cn2c(-c3ccccc3)c(-c3ccccc3)c3c(=N)n(CC4CCCO4)cnc32)cc1 (stereo not shown)  20.6 µM
65. COc1ccc(Cn2c(-c3ccccc3)c(-c3ccccc3)c3c(=N)n(N4CCOCC4)cnc32)cc1  20.6 µM
66. N=c1c2c(-c3ccccc3)c(-c3ccccc3)n(Cc3ccccc3)c2ncn1CC1CCOC1 (stereo not shown)  20.6 µM
67. COc1ccc(-c2c(-c3ccc(OC)cc3)n(Cc3ccccc3)c3ncn(CCCO)c(=N)c23)cc1  20.6 µM
68. N=c1c2c(-c3ccccc3)c(-c3ccccc3)n(CC3CC3)c2ncn1CC1CCOCC1  20.6 µM
69. COc1ccc(-c2c(-c3ccc(OC)cc3)n(Cc3ccccc3)c3ncn(CC4CCOCC4)c(=N)c23)cc1  20.6 µM
70. COc1ccc(-c2c(-c3ccc(OC)cc3)n(Cc3ccccc3)c3ncn([C@@H]4CCCC[C@H]4CO)c(=N)c23)cc1  20.6 µM
71. Cc1ccc(-c2c(C(=O)CF)n(CCCO)c3ncnc(N)c23)cc1  20.6 µM
72. N=c1c2c(-c3ccccc3)cn(Cc3ccccc3)c2ncn1CCCN1CCN(c2ccccc2)CC1  23.1 µM
73. N=c1c2c(-c3ccccc3)c(-c3ccccc3)n(Cc3ccccc3)c2ncn1[C@H](CO)Cc1ccccc1  23.1 µM
74. COC(Cn1cnc2c(c(-c3ccccc3)c(-c3ccccc3)n2CCc2ccccc2)c1=N)OC  23.1 µM
75. COc1ccc(CCn2cnc3c(c(-c4ccccc4)c(-c4ccccc4)n3Cc3ccccc3)c2=N)cc1OC  23.1 µM
76. N=c1c2c(-c3ccccc3)c(-c3ccccc3)n(CCc3ccccc3)c2ncn1CC1CCCO1 (stereo not shown)  23.1 µM
77. COCCn1cnc2c(c(-c3ccccc3)c(-c3ccccc3)n2Cc2ccc(OC)cc2)c1=N  23.1 µM
78. COc1ccc(-c2c(-c3ccc(OC)cc3)n(Cc3ccccc3)c3ncn(C4CCOCC4)c(=N)c23)cc1  23.1 µM
79. Cc1c(C)n(Cc2ccccc2)c2ncn(C3CCOCC3)c(=N)c12  23.1 µM
80. Cc1ccc(-c2c(C(=O)CCl)n(CCCO)c3ncnc(N)c23)cc1  23.1 µM
81. N=c1c2c(-c3ccccc3)cn(Cc3ccc(Br)cc3)c2ncn1CCCCO  25.9 µM
82. N=c1c2c(-c3ccccc3)cn(Cc3ccccc3)c2ncn1[C@H](CO)Cc1ccccc1  25.9 µM
83. N=c1c2c(-c3ccccc3)cn(Cc3ccccc3)c2ncn1C(CO)(CO)CO  29.1 µM
84. N=c1c2c(-c3ccccc3)c(-c3ccccc3)n(Cc3ccccc3)c2ncn1CCCN1CCN(c2ccccc2)CC1  29.1 µM
85. CN(C)CCCn1cnc2c(c(-c3ccccc3)c(-c3ccccc3)n2Cc2ccccc2)c1=N  29.1 µM
86. C[C@H]([C@@H](O)c1ccccc1)n1cnc2c(c(-c3ccccc3)c(-c3ccccc3)n2Cc2ccccc2)c1=N  29.1 µM
87. N=c1c2c(-c3ccccc3)c(-c3ccccc3)n(Cc3ccccc3)c2ncn1C1CCN(Cc2ccccc2)CC1  29.1 µM
88. CN(C)CCCn1cnc2c(c(-c3ccccc3)c(-c3ccccc3)n2CCc2ccccc2)c1=N  32.6 µM
